Assay results taken from US20230243812A1, “[…] TISSUE […] METHODS FOR FORMATION AND USE THEREOF” (President and Fellows of Harvard College, priority 2022, published 2023).
Entries after “also recorded” stand apart in the source; their conditions may differ.

Tested on: muscular bilayer tissues of biohybrid fish (human stem cell-derived CMs)
Experiment: Antagonistic contraction and swimming performance of self-paced biohybrid fish treated with stretch-activated channel blockers
Assay type: cell-based
Conditions: for Spontaneous frequencies of treated muscular bilayer tissues (frequency-domain analysis of tail-beat angle) / Empirical probability of antagonistic contraction / Moving (swimming) speed: 250 μM streptomycin or 100 μM Gd3+; for Spontaneous frequencies of treated muscular bilayer tissues (frequency-domain analysis of tail-beat angle): power spectral density; for Empirical probability of antagonistic contraction / Moving (swimming) speed: self-paced biohybrid fish, at least 24 hours
Experimental: The biohybrid fish was placed in Tyrode's solution (1.8 mM CaCl2, 5 mM glucose, 5 mM Hepes, 1 mM MgCl2, 5.4 mM KCl, 135 mM NaCl, and 0.33 mM NaH2PO4 in deionized water, pH 7.4, at 37° C.; Sigma Aldrich, St. Louis, Mo.) in a 22 cm square chamber (VWR International, Radnor, Pa.) on a hotplate (VWR International, Radnor, Pa.) and temperature was maintained at 35° C. to 37° C. The recording of swimming performance of biohybrid fish was filmed with a sCMOS camera (Pco.edge, PCO AG, Germany) coupled with a zoom camera lens (Thorlabs Inc, Newton, N.J.) at 50 frames per second or a single-lens recorder (AXP55 4K Handycam, Sony, Japan) with a 26.8 mm wide-angle lens at 50 frames per second.
To check the effect of mechanical signaling on the antagonistic contraction of muscular bilayer tissues, the biohybrid fish were treated with 250 μM streptomycin or 100 μM Gd^3+ (both from Sigma-Aldrich, St. Louis, Mo.) before recording, streptomycin or Gd^3+ for at least 24 hours.
Digital videos recorded during locomotion experiments were converted to image stacks using a custom-made Matlab program (24) (R2020b, Mathworks, Natick, Mass.). The head, body, and tail positions of the biohybrid fish were tracked using an image processing software (ImageJ, NIH, Bethesda, Md.). The moving distance of the biohybrid fish was measured during each tail-beat cycle, and the swimming speed was calculated by dividing the cumulative distance travelled by the total time. Tail-beat amplitude was measured as the distance between maximum right and left excursions. Tail-beat angle (θ) was calculated as the body angle difference between chord lines of its anterior body and caudal fin at the maximum right and left excursions. Antagonistic contraction was determined by checking whether a muscle contraction induced the subsequent contraction of the opposite side muscle with any delay or not. The empirical probability of antagonistic contraction was determined by dividing the number of antagonistic contractions by the total number of contractions.

[1] = after Gd3+ treatment versus before

Row | SMILES | Spontaneous frequencies of treated muscular bilayer tissues (frequency-domain analysis of tail-beat angle) | Reduction in Re (Reynolds number) [1] | Reduction in Sw (Swimming number) [1] | Empirical probability of antagonistic contraction | Moving (swimming) speed | Empirical probability of antagonistic contraction (listed as Gd3+)
1 | [Gd+3] [Gd^3+, gadolinium] | not harmonic | 80.8% | 40.6% | disrupted antagonistic contraction; also recorded: sensitive; also recorded: significantly decreased | reduced | reduced the chance of antagonistic muscle contraction
2 | [H]/N=C(/N)N[C@H]1[C@H](O)[C@@H](O)[C@H](O[C@@H]2O[C@@H](C)[C@](O)(C=O)[C@H]2O[C@@H]2O[C@@H](CO)[C@H](O)[C@@H](O)[C@@H]2NC)[C@@H](N/C(N)=N\[H])[C@@H]1O [streptomycin] | not harmonic | – | – | disrupted antagonistic contractions; also recorded: sensitive; also recorded: reduced the chance of antagonistic muscle contraction; also recorded: significantly decreased | reduced | –
